Measurements reported in patent US11040056B2, “Benzimidazoles that enhance the activity of oligonucleotides” (The University of North Carolina at Chapel Hill, priority 2018, dated 2021).

Tested on: HeLaLuc705 cells
Assay: SSO-mediated luciferase induction assay
Format: cell-based
Experimental: FIG. 1B-1E. Effects with SSOs. FIG. 1B Structure of UNC2383. […] The cells were then rinsed and incubation continued for an additional 4 h in DMEM+10% FBS. Cells were rinsed twice in PBS and luciferase activity (RLU) and cell protein determined. The larger round symbol indicates the MM oligonucleotide. Means+/−SE. N=3. […] The cells were further incubated and then luciferase and protein determined. The total time of incubation in each case was 6 h. […] Means+/−SE. N=3.
FIG. 3. Effect and Cytotoxicity of Analogs. The effect of selected UNC2383 analogs on luciferase induction by SSO623 was measured as described in Methods and in the legend of FIG. 1B-1E. Cytotoxicity was measured using the Alamar Blue method as in FIG. 1E. MM10 is the effect of 10 uM compound in the presence of a mismatched oligonucleotide. Means and SE. N=3.
HeLaLuc705 cells are stably transfected with a firefly luciferase reporter whose coding sequence is interrupted by an abnormal intron. […] NIH-3T3-MDR cells are stably transfected with a human MDR1 cDNA coding for the P-glycoprotein (Pgp). We have described the maintenance and use of these cell lines elsewhere. (18, 20)
SSO-mediated luciferase induction assays were conducted as previously described. (18) In short, HeLaLuc705 cells in 24 well culture plates were preincubated with SSO623 followed by brief treatment with the small molecule; at intervals thereafter, luciferase activity and protein content were determined. […] (30)

[1] = cells preloaded with 100 nM SSO623, FIG. 1D

Compound: O=C(Nc1nc2ccccc2n1CCN1CCCC1)c1cc2cc(Cl)ccc2o1 [UNC2383]
- effectiveness in cells compared to Retro-1: far more effective
- effectiveness in cells compared to UNC10217938: approximately equivalent
- enhancement of SSO actions (2 μM): quite strongly enhanced
- SSO-mediated luciferase induction, comparison with chloroquine (FIG. 9C, 2 h, chloroquine also 16 h): very active
- onset of action: effects first observed [1]: ≤ 30 min
- onset of action: reaching a plateau [1]: ≤ 120 min
- EC50 (luciferase induction by SSO623): 2000 nM
- luciferase induction after mismatched oligonucleotide (mismatched oligonucleotide followed by compound): no effect
